Experimental data as given in patent publication US7842802B2, “Vinorelbine derivatives” (priority 2003, dated 2010).
Where two headings read alike, the source gives them in different places.

Key:
[1] = test system: MCF-7 human breast carcinoma line; assay: MCF-7 GI50 determination (crystal violet); format: cell-based; conditions: Homo sapiens, MCF7, 96 h, read-out: MCF-7 Cells GI50
Procedure: Growth inhibition (GI50) values were measured on the human breast carcinoma line, MCF-7. MCF-7 cells were plated at 2×10^4 cells/well in 96 well plates and grown for 24 hours in drug free media. On day 2, test compounds were added to the plates at 10-fold dilutions. Four days later, cells were fixed by the addition of glutaraldehyde to 0.75%. After 30 min, the fixed cells were extensively rinsed with distilled water and dried at room temperature for one hour. The cells were then stained with a 0.2% crystal violet solution for one hour at room temperature. Unbound stain was removed by ten rinses with tap water and plates were allowed to air dry for 30 min. The crystal violet was then solubilized by the addition of 10% acetic acid for 15 min and quantified by measuring absorbance at 570 nm on a Molecular Devices microplate reader. Growth inhibition was calculated according to the following equation: GI=[…], where the optical density (OD) of the test well after 4 days of treatment was T, the OD of the wells in the control plate on day 0 was T0. Plots of percent growth inhibition versus inhibitor concentration were used to determine the GI50.

[2] = test system: HeLa S-3 human cervical carcinoma cell line; assay: HeLa GI50 determination (SRB); format: cell-based; conditions: Homo sapiens, HeLa S3, 48 h, read-out: HeLa Cells GI50
Procedure: Growth inhibition (GI50) values were measured on the human cervical carcinoma cell line, HeLa S-3, which were selected for growth on plastic. The HeLa cell assay was based on the description of Skehan et al., J. Natl. Cancer Inst., 82:1107-12 (1990), which is hereby incorporated by reference in its entirety. HeLa cells were plated at 2×10^4 cells/well in 96 well plates. One day later, a control plate was fixed by the addition of TCA to 5%. After five rinses with tap water, the plate was air-dried and stored at 4° C. Test compounds were added to the remaining plates at 10-fold dilutions. Two days later, all plates were fixed as described above. Cells were then stained by the addition of 100 μL per well of 0.4% sulforhodamine B (SRB) in 1% acetic acid for 30 min at 4° C. Wells were then quickly rinsed 5× with 1% acetic acid and allowed to air dry. The SRB was then solubilized by the addition of 100 μL per well of unbuffered 10 mM Tris base. Dye was quantified by measuring absorbance at 490 nm on a Molecular Devices microplate reader. Growth inhibition was calculated according to the following equation: GI=100×(T−T0)/(C−T0), where the optical density (OD) of the test well after 2 days of treatment was T, the OD of the wells in the control plate on day 0 was T0 and C was the OD of untreated wells. Plots of percent growth inhibition versus inhibitor concentration were used to determine the GI50.

[3] = MCF-7, 4 days of treatment, crystal violet
[4] = HeLa S-3, 2 days of treatment, SRB

Row | SMILES | GI50 [1, 3] [nM] | GI50 [2, 4] [nM] | GI50 [1] [nM] | GI50 [2] [nM]
1 | CCC1=C[C@H]2CN(C1)Cc1c([nH]c3ccc(C(=O)OC)cc13)[C@@](C(=O)OC)(c1cc3c(cc1OC)N(C)[C@H]1[C@@](O)(C(=O)OC)[C@H](OC(C)=O)C4C(CC)=CCN5CC[C@]31[C@H]45)C2 (stereo partly shown) [Example 27, 11′-(methoxycarbonyl) vinorelbine] | 50 | 30 | – | –
2 | CCC1=C[C@H]2CN(C1)Cc1c([nH]c3ccc([S+]([O-])CCO)cc13)[C@@](C(=O)OC)(c1cc3c(cc1OC)N(C)[C@H]1[C@@](O)(C(=O)OC)[C@H](OC(C)=O)C4C(CC)=CCN5CC[C@]31[C@H]45)C2 (stereo partly shown) [Example 19, 11′-(3-hydroxyethylsulfinyl)vinorelbine] | > 1000 | 300 | – | –
3 | CCC1=C[C@H]2CN(C1)Cc1c([nH]c3ccc(-c4ccccc4)cc13)[C@@](C(=O)OC)(c1cc3c(cc1OC)N(C)[C@H]1[C@@](O)(C(=O)OC)[C@H](OC(C)=O)C4C(CC)=CCN5CC[C@]31[C@H]45)C2 (stereo partly shown) [Example 30, 11′-phenylvinorelbine] | 300 | 70 | – | –
4 | CCC1=C[C@H]2CN(C1)Cc1c([nH]c3ccc(C#CCOC)cc13)[C@@](C(=O)OC)(c1cc3c(cc1OC)N(C)[C@H]1[C@@](O)(C(=O)OC)[C@H](OC(C)=O)C4C(CC)=CCN5CC[C@]31[C@H]45)C2 (stereo partly shown) [Example 24, 11′-(3-methoxypropynyl)vinorelbine] | 300 | 100 | – | –
5 | CCC1=C[C@H]2CN(C1)Cc1c([nH]c3ccc(Nc4ccc(OC)cc4)cc13)[C@@](C(=O)OC)(c1cc3c(cc1OC)N(C)[C@H]1[C@@](O)(C(=O)OC)[C@H](OC(C)=O)C4C(CC)=CCN5CC[C@]31[C@H]45)C2 (stereo partly shown) [Example 36, 11′-(4-methoxyphenylamino)vinorelbine] | 400 | 300 | – | –
6 | CCC1=C[C@H]2CN(C1)Cc1c([nH]c3ccc(C)cc13)[C@@](C(=O)OC)(c1cc3c(cc1OC)N(C)[C@H]1[C@@](OC)(C(=O)OC)[C@H](OC(C)=O)C4C(CC)=CCN5CC[C@]31[C@H]45)C2 (stereo partly shown) [Example 33, 3,11′-dimethyl vinorelbine] | 50 | 30 | – | –
7 | CCC1=C[C@H]2CN(C1)Cc1c([nH]c3ccc([S+]([O-])CCCO)cc13)[C@@](C(=O)OC)(c1cc3c(cc1OC)N(C)[C@H]1[C@@](O)(C(=O)OC)[C@H](OC(C)=O)C4C(CC)=CCN5CC[C@]31[C@H]45)C2 (stereo partly shown) [Example 20, 11′-(3-hydroxypropylsulfinyl)vinorelbine] | 300 | 40 | – | –
8 | CCC1=C[C@H]2CN(C1)Cc1c([nH]c3ccc(C#CCC(C)C)cc13)[C@@](C(=O)OC)(c1cc3c(cc1OC)N(C)[C@H]1[C@@](O)(C(=O)OC)[C@H](OC(C)=O)C4C(CC)=CCN5CC[C@]31[C@H]45)C2 (stereo partly shown) [Example 23, 11′-(4-methylpentynyl) vinorelbine] | 300 | 300 | – | –
9 | CCC1=C[C@H]2CN(C1)Cc1c([nH]c3ccc(SCc4ccccc4Cl)cc13)[C@@](C(=O)OC)(c1cc3c(cc1OC)N(C)[C@H]1[C@@](O)(C(=O)OC)[C@H](OC(C)=O)C4C(CC)=CCN5CC[C@]31[C@H]45)C2 (stereo partly shown) [Example 16, 11′-(2-chlorobenzylsulfanyl)vinorelbine] | 500 | 300 | – | –
10 | CCC1=C[C@H]2CN(C1)Cc1c([nH]c3ccc(/C=C/C(=O)O)cc13)[C@@](C(=O)OC)(c1cc3c(cc1OC)N(C)[C@H]1[C@@](O)(C(=O)OC)[C@H](OC(C)=O)C4C(CC)=CCN5CC[C@]31[C@H]45)C2 (stereo partly shown) [Example 6, 11′-(carboxyvinyl) vinorelbine] | > 1000 | 800 | – | –
11 | C=Cc1ccc2[nH]c3c(c2c1)CN1CC(CC)=C[C@@H](C1)C[C@]3(C(=O)OC)c1cc2c(cc1OC)N(C)[C@H]1[C@@](O)(C(=O)OC)[C@H](OC(C)=O)C3C(CC)=CCN4CC[C@]21[C@H]34 (stereo partly shown) [Example 3, 11′-vinylvinorelbine] | 7 | 3 | – | –
12 | CCC1=C[C@H]2CN(C1)Cc1c([nH]c3ccc(SCCCO)cc13)[C@@](C(=O)OC)(c1cc3c(cc1OC)N(C)[C@H]1[C@@](O)(C(=O)OC)[C@H](OC(C)=O)C4C(CC)=CCN5CC[C@]31[C@H]45)C2 (stereo partly shown) [Example 13, 11′-(3-hydroxypropylsulfanyl)vinorelbine] | 30 | 20 | – | –
13 | C#Cc1ccc2[nH]c3c(c2c1)CN1CC(CC)=C[C@@H](C1)C[C@]3(C(=O)OC)c1cc2c(cc1OC)N(C)[C@H]1[C@@](O)(C(=O)OC)[C@H](OC(C)=O)C3C(CC)=CCN4CC[C@]21[C@H]34 (stereo partly shown) [Example 21, 11′-ethynylvinorelbine] | 5 | 0.4 | – | –
14 | CCC1=C[C@H]2CN(C1)Cc1c([nH]c3ccc(-c4c(C)noc4C)cc13)[C@@](C(=O)OC)(c1cc3c(cc1OC)N(C)[C@H]1[C@@](O)(C(=O)OC)[C@H](OC(C)=O)C4C(CC)=CCN5CC[C@]31[C@H]45)C2 (stereo partly shown) [Example 32, 11′-(3,5-dimethylisoxazol-4yl)vinorelbine] | 400 | 300 | – | –
15 | CCC1=C[C@H]2CN(C1)Cc1c([nH]c3ccc(C(=O)OCC(Cl)Cl)cc13)[C@@](C(=O)OC)(c1cc3c(cc1OC)N(C)[C@H]1[C@@](O)(C(=O)OC)[C@H](OC(C)=O)C4C(CC)=CCN5CC[C@]31[C@H]45)C2 (stereo partly shown) [Example 29, 11′-(2,2-dichloroethoxycarbonyl)vinorelbine] | 300 | 70 | – | –
16 | CCC1=C[C@H]2CN(C1)Cc1c([nH]c3ccc(SC)cc13)[C@@](C(=O)OC)(c1cc3c(cc1OC)N(C)[C@H]1[C@@](O)(C(=O)OC)[C@H](OC(C)=O)C4C(CC)=CCN5CC[C@]31[C@H]45)C2 (stereo partly shown) [Example 10, 11′-(methylsulfanyl) vinorelbine] | 1 | 0.3 | – | –
17 | CCC1=C[C@H]2CN(C1)Cc1c([nH]c3ccc(SCc4ccccc4F)cc13)[C@@](C(=O)OC)(c1cc3c(cc1OC)N(C)[C@H]1[C@@](O)(C(=O)OC)[C@H](OC(C)=O)C4C(CC)=CCN5CC[C@]31[C@H]45)C2 (stereo partly shown) [Example 15, 11′-(2-fluorobenzylsulfanyl)vinorelbine] | 400 | 200 | – | –
18 | CCC1=C[C@H]2CN(C1)Cc1c([nH]c3ccc(N)cc13)[C@@](C(=O)OC)(c1cc3c(cc1OC)N(C)[C@H]1[C@@](O)(C(=O)OC)[C@H](OC(C)=O)C4C(CC)=CCN5CC[C@]31[C@H]45)C2 (stereo partly shown) [Example 35, 11′-aminovinorelbine] | 600 | 300 | – | –
19 | CCC1=C[C@H]2CN(C1)Cc1c([nH]c3ccc(SCCCCO)cc13)[C@@](C(=O)OC)(c1cc3c(cc1OC)N(C)[C@H]1[C@@](O)(C(=O)OC)[C@H](OC(C)=O)C4C(CC)=CCN5CC[C@]31[C@H]45)C2 (stereo partly shown) [Example 12, 11′-(4-hydroxybutylsulfanyl)vinorelbine] | 40 | 20 | – | –
20 | CCC1=C[C@H]2CN(C1)Cc1c([nH]c3ccc(C(=O)OCC(Cl)(Cl)Cl)cc13)[C@@](C(=O)OC)(c1cc3c(cc1OC)N(C)[C@H]1[C@@](O)(C(=O)OC)[C@H](OC(C)=O)C4C(CC)=CCN5CC[C@]31[C@H]45)C2 (stereo partly shown) [Example 28, 11′-(2,2,2-trichloroethoxycarbonyl) vinorelbine] | – | – | > 1000 | 300
21 | CCC1=C[C@H]2CN(C1)Cc1c([nH]c3ccc(SCCC(=O)OC)cc13)[C@@](C(=O)OC)(c1cc3c(cc1OC)N(C)[C@H]1[C@@](O)(C(=O)OC)[C@H](OC(C)=O)C4C(CC)=CCN5CC[C@]31[C@H]45)C2 (stereo partly shown) [Example 7, 11′-(methoxycarbonylethylsulfanyl) vinorelbine] | 400 | 200 | – | –
22 | CCC1=C[C@H]2CN(C1)Cc1c([nH]c3ccc(S)cc13)[C@@](C(=O)OC)(c1cc3c(cc1OC)N(C)[C@H]1[C@@](O)(C(=O)OC)[C@H](OC(C)=O)C4C(CC)=CCN5CC[C@]31[C@H]45)C2 (stereo partly shown) [Example 8, 11′-thiovinorelbine] | 60 | 40 | – | –
23 | CCC1=C[C@H]2CN(C1)Cc1c([nH]c3ccc(-c4cccc(O)c4)cc13)[C@@](C(=O)OC)(c1cc3c(cc1OC)N(C)[C@H]1[C@@](O)(C(=O)OC)[C@H](OC(C)=O)C4C(CC)=CCN5CC[C@]31[C@H]45)C2 (stereo partly shown) [Example 31, 11′-(3-hydroxyphenyl) vinorelbine] | 600 | 300 | – | –
